Patent US6989435B2, “Compounds and methods to inhibit or augment an inflammatory response” (Cambridge University Technical Services Ltd., priority 1997, dated 2006)
Marks after values point to notes of the source that are not given here. Residues, ends and D or L forms follow the SMILES beside them. No end group written: not given here.

Tests used:
[1] = system: chemokine-induced THP-1 migration (MCP-1, MIP1α, IL8, SDF1α); experiment: Trans-well THP-1 migration assay, across the chemokines tested; assay type: cell-based, human; settings: for selectivity ratio (CC versus CXC chemokines): >1 = greater inhibition of CC chemokines, <1 = of CXC chemokines; for CC SPECIFICITY: Table 7, average inhibitory ED50 versus SDF1 and IL8 divided by average inhibitory ED50 versus MCP-1 and MIP1α
Description: To determine whether an agent inhibits a chemokine-induced activity, such as macrophage recruitment, varying amounts of the agent are mixed with cells in the presence of a known chemoattractant. […] Chemokine (such as MCP-1, MIP1α, IL8 or SDF-1α), at a concentration known to cause significant migration of THP-1 cells in the trans-well migration assay, is placed in the lower compartment (FIG. 1). […] After incubation, the cells are gently removed from the top of the filter with a pipette, 20 μl of 20 mM EDTA in simple PBS is added into each top well, and incubated for 20 minutes at 4° C. The filter is carefully flushed with media using a gentle flow, and removed. […] The media is carefully aspirated from each well, and the converted dye is solubilized by 20 μl of DMSO. Absorbance of converted dye is measured at a wavelength of 595 nm using an ELISA plate reader. The number of migrated cells in each well is then determined by interpolation of the standard curve (see also Imai et al., J. Biol. Chem., 272, 15036 (1997)). […] The framed filter was aligned with the holes in the corner of the filter frame and placed over the wells. Five×10^4 THP-1 cells in 25 μl of RPMI-1640 culture media were added to the upper compartment. Peptides were dissolved in Milli Q water and then serially diluted in culture medium. In most cases, the serially diluted peptides were added to the upper compartment of the chemotaxis chamber. […] After incubation, the cells were gently removed from the top of the filter with a pipette, 20 μl of 20 mM EDTA in PBS was added into each top well, and the mixture was incubated for 20 minutes at 4° C. The filter was then carefully flushed with media using a gentle flow, and removed. […] The media was carefully aspirated from each well, and the converted dye was solubilized by 20 μl of DMSO. Absorbance of converted dye was measured at a wavelength of 595 nm using an ELISA plate reader. […] Representative chemokines included a beta-chemokine (“CC”), MIP-1α, and two alpha-chemokines (“CXC”), IL-8 and SDF-1α. […]

[2] = biological target: T1, Duffy Antigen Receptor for Chemokines (DARC) (Homo sapiens, UniProt Q16570); experiment: DARC binding: competition with 125I-labeled MCP-1 on red blood cells
T1 sequence (Q16570 1-336): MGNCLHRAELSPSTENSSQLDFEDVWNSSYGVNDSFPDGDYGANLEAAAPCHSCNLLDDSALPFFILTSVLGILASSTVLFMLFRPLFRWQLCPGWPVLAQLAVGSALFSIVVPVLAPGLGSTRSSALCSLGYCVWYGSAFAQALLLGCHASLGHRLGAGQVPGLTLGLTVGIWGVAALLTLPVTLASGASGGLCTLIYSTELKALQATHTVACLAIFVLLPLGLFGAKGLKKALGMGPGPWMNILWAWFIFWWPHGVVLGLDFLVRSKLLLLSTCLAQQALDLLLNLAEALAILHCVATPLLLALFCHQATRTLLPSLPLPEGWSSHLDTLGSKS

[3] = system: IL8 induced THP-1 migration; experiment: Trans-well THP-1 migration assay, IL8 as chemoattractant; assay type: cell-based, human
Description: (§1) FIG. 1 is a schematic of the trans-well migration assay. In most experiments, the peptide (wavy line) is added to the upper well with about 50,000 cells (O). The upper and lower wells are separated by a 5 μm or 8 μm pore size PVP-free membrane (- - - -). Chemokine (●) is added to the lower well. After 4 hours, the number of cells that have migrated through the membrane are measured (◯ in lower well).
(§2) To determine whether an agent inhibits a chemokine-induced activity, such as macrophage recruitment, varying amounts of the agent are mixed with cells in the presence of a known chemoattractant. For example, a range of known concentrations of an agent, e.g., a chemokine peptide, is incubated with a defined number (e.g., 10^4-10^6) of human THP-1 monocyte cells in individual wells of the top compartment of a trans-well plate. […] A standard curve consisting of a two-fold dilution series of THP-1 cells (in 29 μl) is prepared to accurately quantify the number of cells that have migrated. […] Absorbance of converted dye is measured at a wavelength of 595 nm using an ELISA plate reader. The number of migrated cells in each well is then determined by interpolation of the standard curve (see also Imai et al., J. Biol. Chem., 272, 15036 (1997)). […]

[4] = system: MCP-1 induced THP-1 migration; experiment: Trans-well THP-1 migration assay, MCP-1 as chemoattractant; assay type: cell-based, human; settings: Table 6; n.s. = no statistically significant inhibition
Description: as §1
To determine whether an agent inhibits a chemokine-induced activity, such as macrophage recruitment, varying amounts of the agent are mixed with cells in the presence of a known chemoattractant. For example, a range of known concentrations of an agent, e.g., a chemokine peptide, is incubated with a defined number (e.g., 10^4-10^6) of human THP-1 monocyte cells in individual wells of the top compartment of a trans-well plate. Chemokine (such as MCP-1, MIP1α, IL8 or SDF-1α), at a concentration known to cause significant migration of THP-1 cells in the trans-well migration assay, is placed in the lower compartment (FIG. 1). Cells are then incubated at 37° C. for a period sufficient to allow migration, e.g., 4 hours. After incubation, the cells are gently removed from the top of the filter with a pipette, 20 μl of 20 mM EDTA in simple PBS is added into each top well, and incubated for 20 minutes at 4° C. The filter is carefully flushed with media using a gentle flow, and removed. A standard curve consisting of a two-fold dilution series of THP-1 cells (in 29 μl) is prepared to accurately quantify the number of cells that have migrated. Migrated cells are stained with 3 μl of MTT stock dye solution which is added directly into each well (5 mg/ml in RPMI-1640 without phenol red, Sigma Chemical Co.) and incubated at 37° C. for 4 hours. The media is carefully aspirated from each well, and the converted dye is solubilized by 20 μl of DMSO. Absorbance of converted dye is measured at a wavelength of 595 nm using an ELISA plate reader. The number of migrated cells in each well is then determined by interpolation of the standard curve (see also Imai et al., J. Biol. Chem., 272, 15036 (1997)).
(§3) Any method suitable for counting cells can be used, for example, counting with a hemocytometer, incubation of the cells with MTT (see above), or FACS analysis. A negative control assay is also performed, using TGF-β or another non-chemokine chemoattractant (e.g., IL1β or TNFα). To assess whether the agent is cytotoxic, the same concentrations of agent are incubated with THP-1 cells. Agents which 1) are not cytotoxic at levels which inhibit migration, 2) are ineffective at inhibiting the negative control-induced migration, and 3) reduce or inhibit chemokine-induced THP-1 migration, are agents which fall within the scope of the invention.
(§4) For this assay, THP-1 cells were maintained at a density of 4×10^5 cells per ml in RPMI-1640 supplemented with 10% fetal calf serum+20 μM 2-mercaptoethanol. Chemotaxis was induced in a 96-well disposable chemotaxis chamber fitted with a […] polycarbonate filter (PVP free, ChemoTX, Neuroprobe Inc., Cabin John). Twenty-nine μl of chemoattractant (recombinant human chemokine; 50 ng/ml, i.e., 5.9 nM) or control (100 ng/ml TGFβ) was added to the lower compartment of each well. The framed filter was aligned with the holes in the corner of the filter frame and placed over the wells. Five×10^4 THP-1 cells in 25 μl of RPMI-1640 culture media were added to the upper compartment. Peptides were dissolved in Milli Q water and then serially diluted in culture medium. In most cases, the serially diluted peptides were added to the upper compartment of the chemotaxis chamber. The chamber was incubated at 37° C. in a humidified atmosphere of 5% CO2 for 4 hours.
After incubation, the cells were gently removed from the top of the filter with a pipette, 20 μl of 20 mM EDTA in PBS was added into each top well, and the mixture was incubated for 20 minutes at 4° C. The filter was then carefully flushed with media using a gentle flow, and removed. […]

[5] = system: SDF-1α induced THP-1 migration; experiment: Trans-well THP-1 migration assay, SDF-1α as chemoattractant; assay type: cell-based, human; settings: Table 6; n.s. = no statistically significant inhibition
Description: as §1, §2

[6] = system: TGFβ1 induced THP-1 migration; experiment: Trans-well THP-1 migration assay, TGFβ1 as non-chemokine control chemoattractant; assay type: cell-based, human; settings: Table 6; n.s. = no statistically significant inhibition, even at 100 μM
Description: as §3
as §4, with “In most cases, the serially diluted peptides were added to the upper compartment of the chemotaxis chamber. The chamber was incubated at 37° C. in a humidified atmosphere of 5% CO2 for 4 hours.” left out
After incubation, the cells were gently removed from the top of the filter with a pipette, 20 μl of 20 mM EDTA in PBS was added into each top well, and the mixture was incubated for 20 minutes at 4° C. […] A standard curve was prepared to accurately quantify the number of THP-1 cells that had migrated. […] Absorbance of converted dye was measured at a wavelength of 595 nm using an ELISA plate reader. The number of cells that had migrated in each well was determined by interpolation of the standard curve.
To investigate the receptor specificity of peptide 3 inhibition, the ED50 was determined for peptide 3(1-12)[MCP-1] […]

EICADPSQKWVQ [Ser7peptide 3]
selectivity ratio (CC versus CXC chemokines) [1]: 0.5 | CC SPECIFICITY [1]: 0.5 | DUFFY SELECTIVITY ([2]; Table 7, estimated ka for binding to red blood cells divided by average inhibitory ED50 versus each of the chemokines): 2.00

CC[C@H](C)[C@H](NC(=O)[C@H](C)NC(=O)[C@H](CC(=O)O)NC(=O)[C@@H]1CCCN1C(=O)[C@H](CCC(N)=O)NC(=O)[C@H](C)N)C(=O)N[C@@H](CC(N)=O)C(=O)N[C@@H](C)C(=O)N1CCC[C@H]1C(=O)N[C@H](C(=O)N[C@H](C(=O)N[C@@H](CS)C(=O)N[C@@H](CS)C(=O)O)[C@@H](C)O)C(C)C [Peptide 1] (H-AQPDAINAPVTCC-OH)
Kd [2]: > 100 µM

DYFETSSQCSKPGV [Pep2[MIP1α]]
Kd [2]: > 50 µM | DUFFY SELECTIVITY (peptide 2 family) ([2]; Table 7, ka for binding to red blood cells divided by the ka for binding THP-1 cells): >100^d

EICADP [Peptide 3[1-6]]
CC SPECIFICITY [1]: 0.7

EICLDPKQKWVQ [Leu4peptide 3]
increase in potency as an inhibitor of CXC chemokines compared with peptide 3(1-12)[MCP-1] [1]: approximately 4 fold | selectivity ratio (CC versus CXC chemokines) [1]: 0.37 | CC SPECIFICITY [1]: 0.4

KEN [cognate tripeptide from IL8]
inhibition of IL8, in words ([3]; THP-1 migration): specific and potent inhibitor | CC SPECIFICITY [1]: <0.1

WIQ
CC SPECIFICITY [1]: 1.0

RGD [reference compound]
inhibition of THP-1 cell migration induced by MCP-1, MIP1α, IL-8 and SDF1α, in words [1]: None of these significantly inhibited

EICADPKQKWIQ [Ile11peptide 3]
selectivity ratio (CC versus CXC chemokines) [1]: 0.9 | CC SPECIFICITY [1]: 0.9

GGR [reference compound]
inhibition of THP-1 cell migration induced by MCP-1, MIP1α, IL-8 and SDF1α, in words [1]: None of these significantly inhibited

CLDPKKEWIQ [SEE]
ED50 versus MCP1, THP-1 migration [4]: n.s. | ED50 versus IL8, THP-1 migration ([3]; Table 6, n.s. = no statistically significant inhibition): n.s. | ED50 versus SDF1α, THP-1 migration [5]: n.s. | ED50 versus TGFβ1, THP-1 migration [6]: n.s. | specificity for the cognate chemokine over the other chemokines tested [1]: > 100 fold | CC SPECIFICITY [1]: >100
